Test results reported in patent US10597390B2, “Indoles for use in influenza virus infection” (Janssen Sciences Ireland UC, priority 2014, dated 2020).
Counter-ions that a name gives are not always drawn.

Tests used:
[1] = tested on: influenza virus A/Taiwan/1/86 (H1N1); assay: organism not typed; assay type: cell-based; settings: CPE in MDCK cells, three days post-virus exposure, ATPlite
in vitro = settings: dog, TOX MDCK CC50

Structure (SMILES)	melting point [°C]	IC50 ([1]; MDCK, 72 h) [nM]	CC50 at 3 days (in vitro) [µM]	IC50 [1] [nM]
Nc1n[nH]c(C(=O)N[C@@H]2CCC[C@H](Nc3nc(-c4c[nH]c5c(F)cc(F)cc45)ncc3F)C2)n1	> 300	–	–	–
O=C(N[C@@H]1CCC[C@H](Nc2nc(-c3c[nH]c4c(F)cc(F)cc34)ncc2F)C1)c1nnn[nH]1	270.2	–	–	–
Cc1cc(F)c2[nH]cc(-c3ncc(F)c(N[C@H]4C5CCC(CC5)[C@@H]4C(=O)O)n3)c2c1 (mixture of isomers) (as salt: TFA) [Compound 164]	> 250	–	–	–
Cc1cc(F)c2[nH]cc(-c3ncc(F)c(N[C@@H]4CCC[C@@H](NC(=O)N5CCCC5)C4)n3)c2c1 (racemic) [Compound 20]	94	12	15.1	–
Cc1cc(F)c2[nH]cc(-c3ncc(F)c(N[C@@H]4CCC[C@H](NC(=O)c5ccccn5)C4)n3)c2c1 (racemic) [Compound 21]	208	4	4.8	–
Cc1cc(F)c2[nH]cc(-c3nc(N[C@@H]4CCC[C@@H](NC(=O)c5ccccn5)C4)c(F)cc3C#N)c2c1 (racemic) [Compound 22, N-((cis)-3-((5-cyano-3-fluoro-6-(7-fluoro-5-methyl-1H-indol-3-yl)-pyridin-2-yl)amino)cyclohexyl)picolinamide]	98	12	> 25	–
NC(=O)c1cc(F)c(N[C@@H]2CCC[C@H](NC(=O)N3CCCC3)C2)nc1-c1c[nH]c2c(F)cc(F)cc12 (racemic) [Compound 23]	249.2	140	> 25	–
Cc1cc(C(=O)N[C@@H]2CCC[C@H](Nc3nc(-c4c[nH]c5c(F)cc(Cl)cc45)ncc3F)C2)on1 (racemic) [Compound 29]	246.7	17	3.4	–
Cc1cc(F)c2[nH]cc(-c3ncc(F)c(NC(CC(=O)O)C(C)(C)C)n3)c2c1 (racemic) [Compound 167]	182	30	3.5	–
Cc1cc(F)c2[nH]cc(-c3nc(N[C@@H]4CCC[C@@H](NC(=O)c5ncoc5C)C4)c(F)cc3C#N)c2c1 (racemic) [Compound 192]	> 250	11	> 25	–
Cc1cc(F)c2[nH]cc(-c3ncc(F)c(N[C@H]4CCC[C@@H](NC(=O)c5ncsc5C)C4)n3)c2c1 (racemic) [Compound 193]	234	5	3.6	–
Cc1cc(F)c2[nH]cc(-c3ncc(F)c(N[C@@H]4CCC[C@@H](NC(=O)c5ncoc5C)C4)n3)c2c1 (racemic) [Compound 194]	140	17	11.2	–
Cc1[nH]nnc1C(=O)N[C@@H]1CCC[C@H](Nc2nc(-c3c[nH]c4c(F)cc(Cl)cc34)ncc2F)C1 [Compound 78]	–	2	5.7	–
CN1CCC[C@H]1C(=O)N[C@H]1CCC[C@@H](Nc2nc(-c3c[nH]c4c(F)cc(F)cc34)ncc2F)C1 [Compound 82]	–	270	12.9	–
Cn1nc(N)cc1C(=O)N[C@@H]1CCC[C@H](Nc2nc(-c3c[nH]c4c(F)cc(F)cc34)ncc2F)C1 [Compound 85]	–	2	> 25	–
Cc1[nH]nc(C(=O)N[C@@H]2CCC[C@H](Nc3nc(-c4c[nH]c5c(F)cc(F)cc45)ncc3F)C2)c1N [Compound 86]	–	2	3.1	–
COCc1cc(C(=O)N[C@@H]2CCC[C@H](Nc3nc(-c4c[nH]c5c(F)cc(F)cc45)ncc3F)C2)no1 [Compound 87]	–	40	2.4	–
O=C(N[C@@H]1CCC[C@H](Nc2nc(-c3c[nH]c4c(F)cc(F)cc34)ncc2F)C1)c1cn(CCO)cn1 [Compound 88]	–	7	11.5	–
C=Cn1cnc(C(=O)N[C@@H]2CCC[C@H](Nc3nc(-c4c[nH]c5c(F)cc(F)cc45)ncc3F)C2)c1 [Compound 89]	–	4	7.3	–
CCn1ccnc1C(=O)N[C@@H]1CCC[C@H](Nc2nc(-c3c[nH]c4c(F)cc(F)cc34)ncc2F)C1 [Compound 125]	–	4	10.2	–
O=C(O)c1cccc(C(=O)N[C@@H]2CCC[C@H](Nc3nc(-c4c[nH]c5c(F)cc(F)cc45)ncc3F)C2)n1 [Compound 157]	–	330	> 25	–

Structure (SMILES)	melting point [°C]	IC50 ([1]; MDCK, 72 h) [nM]	CC50 at 3 days (in vitro) [µM]	IC50 [1] [nM]
O=C(N[C@@H]1CCC[C@H](Nc2nc(-c3c[nH]c4c(F)cc(F)cc34)ncc2F)C1)c1cc(=O)[nH][nH]1 [Compound 158]	–	15	13	–
Cn1[nH]c(=O)cc1C(=O)N[C@@H]1CCC[C@H](Nc2nc(-c3c[nH]c4c(F)cc(F)cc34)ncc2F)C1 [Compound 160]	–	0.6	> 25	–
N#Cc1cc(F)c(N[C@@H]2CCC[C@H](NC(=O)N3CCCC3)C2)nc1-c1c[nH]c2c(F)cc(F)cc12 [Compound 162]	–	–	> 23	0.5
Cc1cc(F)c2[nH]cc(-c3ncc(F)c(N[C@@H]4C5CCC(CC5)[C@H]4C(=O)O)n3)c2c1 [Compound 165]	–	> 25000	2.3	–
Cn1cnc(C(=O)N[C@H]2CCC[C@H](Nc3nc(-c4c[nH]c5c(F)cc(F)cc45)c(C#N)cc3F)C2)c1 [Compound 183]	–	1100	> 25	–
Cn1cnc(C(=O)N[C@@H]2CCC[C@H](Nc3nc(-c4c[nH]c5c(F)cc(F)cc45)c(C#N)cc3F)C2)c1 [Compound 184]	–	3	> 25	–
Cn1cnc(C(=O)N[C@@H]2CCC[C@H](Nc3nc(-c4c[nH]c5c(F)cc(Cl)cc45)c(C#N)cc3F)C2)c1 [Compound 185]	–	4	10.2	–
CC(C)(C)[C@H](CC(=O)O)Nc1nc(-c2c[nH]c3c(F)cc(F)cc23)ncc1F [Compound 186]	–	10	3.8	–
O=C(N[C@@H]1CCC[C@H](Nc2nc(-c3c[nH]c4c(F)cc(Cl)cc34)ncc2F)C1)c1ccccn1 [Compound 188]	–	–	11	5
Cn1cnc(C(=O)NC2CC(Nc3nc(-c4c[nH]c5c(F)cc(F)cc45)ncc3F)CC(C)(C)C2)c1 (stereo not drawn) [Compound 202, N-(5-((2-(5,7-difluoro-1H-indol-3-yl)-5-fluoropyrimidin-4-yl)amino)-3,3-dimethylcyclohexyl)-1-methyl-1H-imidazole-4-carboxamide]	–	790	3.9	–
O=C(N[C@@H]1CCC[C@H](Nc2nc(-c3c[nH]c4c(F)cc(F)cc34)ncc2F)C1)c1ccc(O)nn1 [Compound 203]	–	2	> 25	–
Cc1cc(C(=O)N[C@@H]2CCC[C@@H](Nc3nc(-c4c[nH]c5c(F)cc(F)cc45)c(C#N)cc3F)C2)no1 [Compound 204]	–	10	6.8	–
N#Cc1cc(F)c(N[C@H]2CCC[C@@H](NC(=O)[C@@H](O)c3ccccc3)C2)nc1-c1c[nH]c2c(F)cc(F)cc12 [Compound 213]	–	390	3.4	–
CC(C)(C)C(CC(=O)O)Nc1nc(-c2c[nH]c3c(F)cc(F)cc23)c(C#N)cc1F (stereo not drawn) [Compound 219]	–	5	0.21	–
CC(C)(c1cccs1)C(CC(=O)O)Nc1nc(-c2c[nH]c3c(F)cc(F)cc23)ncc1F (stereo not drawn) [Compound 230]	–	41	4	–
CC1(C(CC(=O)O)Nc2nc(-c3c[nH]c4c(F)cc(F)cc34)ncc2F)CCCC1 (stereo not drawn) [Compound 249]	–	11	1.2	–
CC[C@@]1(C(=O)O)CCCC[C@H]1Nc1nc(-c2c[nH]c3c(F)cc(F)cc23)ncc1F [Compound 253]	–	120	15.2	–
O=C(O)[C@@H]1CCCC[C@@H]1Nc1nc(-c2c[nH]c3c(F)cc(F)cc23)ncc1F [Compound 254]	–	320	14.7	–
CCOC(=O)NCc1cc(F)c(NC(CC(=O)O)C(C)(C)C)nc1-c1c[nH]c2c(F)cc(F)cc12 (stereo not drawn) [Compound 256]	–	290	13.1	–
CC(C)(C)[C@@H](CO)Nc1nc(-c2c[nH]c3c(F)cc(F)cc23)c(C#N)cc1F [Compound 257, (S)-2-(5,7-difluoro-1H-indol-3-yl)-5-fluoro-6-((1-hydroxy-3,3-dimethyl-butan-2-yl)amino)nicotinonitrile]	–	130	7	–
O=C(NC1COCC(Nc2nc(-c3c[nH]c4c(F)cc(F)cc34)ncc2F)C1)c1cnn[nH]1 (stereo not drawn) [Compound 261, N-(5-((2-(5,7-difluoro-1H-indol-3-yl)-5-fluoropyrimidin-4-yl)amino)-tetrahydro-2H-pyran-3-yl)-1H-1,2,3-triazole-5-carboxamide]	–	1000	> 25	–
